The record followed here is patent publication US20240174634A1, “Aldehyde Dehydrogenase Inhibitors and Their Therapeutic Use” (priority 2020, published 2024).

In assay [1] the target is T1, ALDH1A1 (Homo sapiens, UniProt P00352).
T1 construct: His-tag; made in house; host or cells: E. coli Rosetta (DE3)
T1 sequence (P00352 1-501): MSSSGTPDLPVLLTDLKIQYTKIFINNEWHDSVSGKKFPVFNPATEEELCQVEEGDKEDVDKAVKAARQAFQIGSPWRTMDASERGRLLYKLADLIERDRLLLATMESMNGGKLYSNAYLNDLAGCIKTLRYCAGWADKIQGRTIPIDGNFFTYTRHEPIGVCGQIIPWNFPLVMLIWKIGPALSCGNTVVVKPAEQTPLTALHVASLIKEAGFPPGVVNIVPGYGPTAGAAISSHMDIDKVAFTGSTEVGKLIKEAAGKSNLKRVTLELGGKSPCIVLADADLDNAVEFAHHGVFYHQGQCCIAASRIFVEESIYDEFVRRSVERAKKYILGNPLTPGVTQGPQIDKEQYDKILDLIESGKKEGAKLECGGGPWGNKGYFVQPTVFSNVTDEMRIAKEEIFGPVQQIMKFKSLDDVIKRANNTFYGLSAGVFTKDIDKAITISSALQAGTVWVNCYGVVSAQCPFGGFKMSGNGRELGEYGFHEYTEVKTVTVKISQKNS
The assay can be described thus: Selectivity biochemical assay, NAD(P)H-Glo Detection System. The procedure, abridged: (§1)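 Recombinant full-length His-tagged human enzymes expressed in E. coli were pre-incubated 30 min at room temperature with compound (10-point, 3-fold series; top 20 μM for ALDH1A3, 250 μM for ALDH1A1/1A2). Propionaldehyde and NAD were then added at Km; NADH was read by NAD(P)H-Glo luminescence. Buffer: Tris (pH 7.6 for 1A1/1A2, 9.0 for 1A3), 1 mM TCEP, 0.01% Tween-20.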

The target of assay [2] is T2, ALDH1A2 (Homo sapiens, UniProt O94788).
T2 construct: His-tag; made in house; host or cells: E. coli Rosetta (DE3)
T2 sequence (O94788 1-518): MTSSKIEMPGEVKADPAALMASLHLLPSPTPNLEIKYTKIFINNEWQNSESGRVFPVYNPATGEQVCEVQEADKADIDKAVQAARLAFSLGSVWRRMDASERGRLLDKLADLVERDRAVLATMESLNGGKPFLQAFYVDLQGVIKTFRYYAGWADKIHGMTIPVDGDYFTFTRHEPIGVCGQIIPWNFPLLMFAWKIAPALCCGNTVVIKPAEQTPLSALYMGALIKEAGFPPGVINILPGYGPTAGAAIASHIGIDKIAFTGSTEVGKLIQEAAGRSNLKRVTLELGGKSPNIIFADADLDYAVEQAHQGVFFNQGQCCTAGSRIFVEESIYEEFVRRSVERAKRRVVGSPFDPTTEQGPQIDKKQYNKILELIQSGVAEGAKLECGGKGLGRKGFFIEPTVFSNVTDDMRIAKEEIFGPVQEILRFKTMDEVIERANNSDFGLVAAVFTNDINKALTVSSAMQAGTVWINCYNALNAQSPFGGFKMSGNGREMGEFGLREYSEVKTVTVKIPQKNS
The assay is described as above. The procedure, abridged: as §1

Structures are written as SMILES. A value given as a limit tells only on which side of the number the result lay.

The term IC50 denotes the concentration needed to halve the response being measured. Low values mean inhibition by little substance, high ones a need for much substance. For `O=C1CCc2cc(OCCN3CCCC3c3ccsc3)ccc2N1` (stereo not drawn) [ALDHI-2014, 6-[2-[2-(3-thienyl)pyrrolidin-1-yl]ethoxy]-3,4-dihydro-1H-quinolin-2-one], the 50% inhibitory concentration (IC50) in assay [1] and in assay [2] was not below 100 µM in each case.

As for `CCn1cc(C2CCCN2CCOc2ccc3c(c2)CCC(=O)N3)cn1` (stereo not drawn) [ALDHI-2016, 6-[2-[2-(1-ethylpyrazol-4-yl)pyrrolidin-1-yl]ethoxy]-3,4-dihydro-1H-quinolin-2-one], the IC50 in assay [1] and in assay [2] was not below 100 µM in each case.

As to `O=C1CCc2cc(OCCN3CCC[C@H]3c3cccc(F)c3)ccc2N1` [ALDHI-2018, 6-[2-[(2S)-2-(3-fluorophenyl)pyrrolidin-1-yl]ethoxy]-3,4-dihydro-1H-quinolin-2-one], the IC50 in assay [1] is not below 100 µM; in assay [2] it was 0.1 to 1 µM.

Turning to `O=C1CCc2cc(OCCN3CCCC3c3ccccc3)ccc2N1` (stereo not drawn) [ALDHI-2019, 6-[2-(2-phenylpyrrolidin-1-yl)ethoxy]-3,4-dihydro-1H-quinolin-2-one], the IC50 is not below 100 µM in assay [1] and 0.1 to 1 µM in assay [2].

Regarding `O=C1CCCc2cc(OCCN3CCCC3c3cccc(F)c3)ccc2N1` (stereo not drawn) [ALDHI-2020, 7-[2-[2-(3-fluorophenyl)pyrrolidin-1-yl]ethoxy]-1,3,4,5-tetrahydro-1-benzazepin-2-one], the 50% inhibitory concentration (IC50) is not below 100 µM in assay [1] and 1 to 10 µM in assay [2].

Consider `O=C1CCc2cc(OCCN3CCC3c3cccc(F)c3)ccc2N1` (stereo not drawn) [ALDHI-2021, 6-[2-[2-(3-fluorophenyl)azetidin-1-yl]ethoxy]-3,4-dihydro-1H-quinolin-2-one], for which the IC50 in assay [1] is not below 100 µM; in assay [2], 1 to 10 µM.

On to `O=c1ccc2cc(OCCN3CCCC3c3cccc(F)c3)ccc2[nH]1` (stereo not drawn) [ALDHI-2022, 6-[2-[2-(3-fluorophenyl)pyrrolidin-1-yl]ethoxy]-1H-quinolin-2-one], for which the concentration for half-maximal inhibition (IC50) in assay [1] was not below 100 µM; in assay [2] it was 1 to 10 µM.

Consider `O=C1CCc2cc(OCCn3nccc3-c3cccc(F)c3)ccc2N1` [ALDHI-2023, 6-[2-[5-(3-fluorophenyl)pyrazol-1-yl]ethoxy]-3,4-dihydro-1H-quinolin-2-one], for which the half-maximal inhibitory concentration (IC50) in assay [1] is not below 100 µM; in assay [2], less than 0.1 µM.

As for `Cn1cc(C2CCCN2CCOc2ccc3c(c2)SCC(=O)N3)cn1` (stereo not drawn) [ALDHI-2026, 7-[2-[2-(1-methylpyrazol-4-yl)pyrrolidin-1-yl]ethoxy]-4H-1,4-benzothiazin-3-one], the 50% inhibitory concentration (IC50) in assay [1] and in assay [2] was not below 100 µM in each case.

Turning to `O=C1CSc2cc(OCCN3CCCC3c3ccccn3)ccc2N1` (stereo not drawn) [ALDHI-2027, 7-[2-[2-(2-pyridyl)pyrrolidin-1-yl]ethoxy]-4H-1,4-benzothiazin-3-one], the IC50 in assay [1] was not below 100 µM; in assay [2] it was 10 to 100 µM.

On to `O=C1CSc2cc(OCCN3CCCC3c3cccnc3)ccc2N1` (stereo not drawn) [ALDHI-2028, 7-[2-[2-(3-pyridyl)pyrrolidin-1-yl]ethoxy]-4H-1,4-benzothiazin-3-one], for which the half-inhibitory concentration (IC50) in assay [1] and in assay [2] was not below 100 µM in each case.

Consider `O=C1CSc2cc(OCCN3CCCC3c3ccncc3)ccc2N1` (stereo not drawn) [ALDHI-2029, 7-[2-[2-(4-pyridyl)pyrrolidin-1-yl]ethoxy]-4H-1,4-benzothiazin-3-one], for which the half-inhibitory concentration (IC50) was not below 100 µM in assay [1] and 10 to 100 µM in assay [2].

In the case of `Cc1ccc(C2CCCN2CCOc2ccc3c(c2)CCC(=O)N3)cn1` (stereo not drawn) [ALDHI-2030, 6-[2-[2-(6-methyl-3-pyridyl)pyrrolidin-1-yl]ethoxy]-3,4-dihydro-1H-quinolin-2-one], the half-maximal inhibitory concentration (IC50) in assay [1] was not below 100 µM; in assay [2] it was 10 to 100 µM.

In the case of `O=C1CCc2cc(OCCN3CCOCC3c3cccc(F)c3)ccc2N1` (stereo not drawn) [ALDHI-2031, 6-[2-[3-(3-fluorophenyl)morpholin-4-yl]ethoxy]-3,4-dihydro-1H-quinolin-2-one], the 50% inhibitory concentration (IC50) in assay [1] was not below 100 µM; in assay [2], 0.1 to 1 µM.

On to `O=C1CCc2cc(OCCN3CCCC3c3cc(F)cc(F)c3)ccc2N1` (stereo not drawn) [ALDHI-2032, 6-[2-[2-(3,5-difluorophenyl)pyrrolidin-1-yl]ethoxy]-3,4-dihydro-1H-quinolin-2-one], for which the half-inhibitory concentration (IC50) was in the range of 10 to 100 µM in assay [1] and 0.1 to 1 µM in assay [2].

As to `Cc1nc(C2CCCN2CCOc2ccc3c(c2)CCC(=O)N3)cs1` (stereo not drawn) [ALDHI-2033, 6-[2-[2-(2-methylthiazol-4-yl)pyrrolidin-1-yl]ethoxy]-3,4-dihydro-1H-quinolin-2-one], the IC50 in assay [1] and in assay [2] was not below 100 µM each time.

`COc1cccc(C2CCCN2CCOc2ccc3c(c2)CCC(=O)N3)c1` (stereo not drawn) [ALDHI-2034, 6-[2-[2-(3-methoxyphenyl)pyrrolidin-1-yl]ethoxy]-3,4-dihydro-1H-quinolin-2-one]: the half-inhibitory concentration (IC50) is not below 100 µM in assay [1] and 10 to 100 µM in assay [2].

In the case of `CC1(c2cccc(F)c2)CCCN1CCOc1ccc2c(c1)CCC(=O)N2` (stereo not drawn) [ALDHI-2037, 6-[2-[2-(3-fluorophenyl)-2-methyl-pyrrolidin-1-yl]ethoxy]-3,4-dihydro-1H-quinolin-2-one], the IC50 was not below 100 µM in assay [1] and 0.1 to 1 µM in assay [2].

On to `O=C1CCc2cc(OCCN3CCCCC3c3cccc(F)c3)ccc2N1` (stereo not drawn) [ALDHI-2038, 6-[2-[2-(3-fluorophenyl)-1-piperidyl]ethoxy]-3,4-dihydro-1H-quinolin-2-one], for which the IC50 in assay [1] lay within 10 to 100 µM; in assay [2], 1 to 10 µM.

`O=C1CCc2cc(OCCN3CCCC3c3ccc(F)c(F)c3)ccc2N1` (stereo not drawn) [ALDHI-2039, 6-[2-[2-(3,4-difluorophenyl)pyrrolidin-1-yl]ethoxy]-3,4-dihydro-1H-quinolin-2-one]: the IC50 in assay [1] and in assay [2] was 1 to 10 µM in each case.

As to `CC1(c2ccccc2)COCCN1CCOc1ccc2c(c1)CCC(=O)N2` (stereo not drawn) [ALDHI-2040, 6-[2-(3-methyl-3-phenyl-morpholin-4-yl)ethoxy]-3,4-dihydro-1H-quinolin-2-one], the IC50 in assay [1] was not below 100 µM; in assay [2] it was 0.1 to 1 µM.

Take `O=C1CCc2cc(OCCn3ccnc3-c3ccccc3)ccc2N1` [ALDHI-2041, 6-[2-(2-phenylimidazol-1-yl)ethoxy]-3,4-dihydro-1H-quinolin-2-one]: the results for the IC50 in assay [1] and in assay [2] were not below 100 µM and 1 to 10 µM, respectively.

Regarding `CC1(C)Oc2cc(OCCN3CCCC3c3cccc(F)c3)ccc2NC1=O` (stereo not drawn) [ALDHI-2043, 7-[2-[2-(3-fluorophenyl)pyrrolidin-1-yl]ethoxy]-2,2-dimethyl-4H-1,4-benzoxazin-3-one], the IC50 in assay [1] was not below 100 µM; in assay [2], 1 to 10 µM.

Regarding `CC1Oc2cc(OCCN3CCCC3c3cccc(F)c3)ccc2NC1=O` (stereo not drawn) [ALDHI-2044, 7-[2-[2-(3-fluorophenyl)pyrrolidin-1-yl]ethoxy]-2-methyl-4H-1,4-benzoxazin-3-one], the half-maximal inhibitory concentration (IC50) in assay [1] is not below 100 µM; in assay [2], 10 to 100 µM.

On to `CCC1Oc2cc(OCCN3CCCC3c3cccc(F)c3)ccc2NC1=O` (stereo not drawn) [ALDHI-2045, 2-ethyl-7-[2-[2-(3-fluorophenyl)pyrrolidin-1-yl]ethoxy]-4H-1,4-benzoxazin-3-one], for which the half-inhibitory concentration (IC50) in assay [1] was not below 100 µM; in assay [2], 1 to 10 µM.

Regarding `CC1Cc2cc(OCCN3CCCC3c3cccc(F)c3)ccc2NC1=O` (stereo not drawn) [ALDHI-2048, 6-[2-[2-(3-fluorophenyl)pyrrolidin-1-yl]ethoxy]-3-methyl-3,4-dihydro-1H-quinolin-2-one], the IC50 in assay [1] lay in the range of 10 to 100 µM; in assay [2], 0.1 to 1 µM.

For `O=C1CCc2cc(OCCN3CCCC3c3cccc(F)c3)c(F)cc2N1` (stereo not drawn) [ALDHI-2050, 7-fluoro-6-[2-[2-(3-fluorophenyl)pyrrolidin-1-yl]ethoxy]-3,4-dihydro-1H-quinolin-2-one], the IC50 in assay [1] is not below 100 µM; in assay [2] it was 1 to 10 µM.
